The results in this text go back to ChEMBL document CHEMBL1201862, “PubChem BioAssay data set” (2004).

Each structure is given as a SMILES string.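 All cell lines were grown in 96-well plates and treated with compound for 48 hours. GI50 marks 50% less growth.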 Activity calls are given as the source filed them. No stated cut-off is given here; in the data, active = GI50 up to about 1.1 µM and inactive = higher.

Test systems include HT-29; SF-539; SK-MEL-2; OVCAR-5; Malme-3M; HCC 2998; SK-MEL-5; SK-OV-3; SN12C; MOLT-4; HCT-15; NCI-H23; NCI-H226; OVCAR-8; KM12; SF-268; SW-620; U-251; TK-10; ACHN.
Assay in all cases: inhibition of tumour cell growth, NCI panel, 48 h

In the case of `CCCC[S+]([O-])CC(CO)NC(=O)/C=C/c1c(C)[nH]c(=O)[nH]c1=O` (stereo unspecified), the GI50 was 14.8 µM (inactive) in the experiment with HT-29; 7.38 µM (inactive) in the experiment on SF-539; 6.34 µM (inactive) with SK-MEL-2; 14.7 µM (inactive) in the experiment on OVCAR-5; 3.14 µM (inactive) with Malme-3M; 8.28 µM (inactive) in the experiment with HCC 2998. Moreover, the GI50 was 4.3 µM (inactive) in the experiment with SK-MEL-5; 10.7 µM (inactive) in the experiment with SK-OV-3; 5.92 µM (inactive) with SN12C; 8.3 µM (inactive) in the experiment on MOLT-4; 31.8 µM in the experiment on HCT-15; 7.98 µM (inactive) with NCI-H23. In addition, the GI50 with NCI-H226 was 11.7 µM (inactive); in the experiment with OVCAR-8, 6.73 µM (inactive); in the experiment on KM12 it was 5.64 µM (inactive); in the experiment on SF-268 it was 2.42 µM (inactive); in the experiment on SW-620, 16.5 µM (inactive); in the experiment with U-251 it was 4.03 µM (inactive).
As for `O=Nn1c2ccccc2c2cc([N+](=O)[O-])ccc21`, the GI50 in the experiment on HT-29 is 18 µM (inactive); in the experiment with SF-539 it was 20.3 µM (inactive); with SK-MEL-2, 36.3 µM (inactive); with OVCAR-5, 16.5 µM (inactive); with Malme-3M it was 12.9 µM (inactive); in the experiment on HCC 2998 it was 33 µM (inactive). The GI50 with SK-MEL-5 is 30.5 µM (inactive); with SK-OV-3, 16.1 µM (inactive); in the experiment on TK-10, 15.4 µM (inactive); in the experiment with SN12C it was 16.8 µM (inactive); in the experiment on ACHN, 14.1 µM (inactive); in the experiment with MOLT-4, 14.1 µM (inactive). For the same compound, the GI50 with HCT-15 was 22.3 µM; with NCI-H23, 17.3 µM (inactive); in the experiment on OVCAR-8, 14.6 µM (inactive); in the experiment on KM12 it was 17.5 µM (inactive); in the experiment with SF-268, 12.7 µM (inactive); in the experiment on SW-620, 13.7 µM (inactive). Further, the GI50 in the experiment on U-251 is 16.4 µM (inactive).
`CC1(C)OCC(CO)(CO)CO1`: the GI50 in the experiment on HT-29, in the experiment on HCC 2998, with SK-MEL-5, with SK-OV-3, with TK-10 and in the experiment with SN12C was > 100 µM (inactive) throughout. The GI50 is > 100 µM (inactive) in the experiment on ACHN; > 100 µM (inactive) in the experiment with MOLT-4; above 100 µM in the experiment on HCT-15; > 100 µM (inactive) in the experiment on NCI-H23; > 100 µM (inactive) with NCI-H226; > 100 µM (inactive) in the experiment on OVCAR-8. The GI50 in the experiment with KM12, in the experiment on SF-268, in the experiment on SW-620 and with U-251 was > 100 µM (inactive) throughout.
With `CC1(C)N=C(c2ccccc2)SC12S[C@@H]1CCCC[C@H]1S2`, the GI50 was 94.6 µM (inactive) with HT-29; > 100 µM (inactive) in the experiment on SF-539; > 100 µM (inactive) in the experiment with SK-MEL-2; > 100 µM (inactive) in the experiment with OVCAR-5; 56.2 µM (inactive) with Malme-3M; 17.4 µM (inactive) in the experiment with SK-MEL-5. The GI50 was > 100 µM (inactive) in the experiment with SK-OV-3; > 100 µM (inactive) in the experiment with TK-10; > 100 µM (inactive) in the experiment with SN12C; > 100 µM (inactive) in the experiment on ACHN; 63.8 µM (inactive) in the experiment on MOLT-4; above 100 µM in the experiment on HCT-15. Also, the GI50 in the experiment with NCI-H23 is 14.7 µM (inactive); in the experiment on NCI-H226 it was > 100 µM (inactive); in the experiment with OVCAR-8, > 100 µM (inactive); in the experiment on KM12, > 100 µM (inactive); in the experiment on SF-268 it was > 100 µM (inactive); with SW-620, 29.4 µM (inactive). Moreover, the GI50 in the experiment with U-251 is > 100 µM (inactive).
Take `Oc1nc2ccccc2c2oc3ccccc3c12`: the GI50 in the experiment on HT-29 was > 100 µM (inactive); in the experiment on SF-539, > 100 µM (inactive); with Malme-3M, > 100 µM (inactive); in the experiment with HCC 2998, > 100 µM (inactive); in the experiment on SK-MEL-5 it was > 100 µM (inactive); in the experiment on SK-OV-3 it was 76 µM (inactive). The GI50 with TK-10 was > 100 µM (inactive); with SN12C, > 100 µM (inactive); in the experiment on ACHN, > 100 µM (inactive); in the experiment with MOLT-4 it was > 100 µM (inactive); with HCT-15, above 100 µM; in the experiment with NCI-H23 it was > 100 µM (inactive). Besides, the GI50 with NCI-H226, in the experiment on OVCAR-8, in the experiment on KM12, with SF-268, in the experiment with SW-620 and in the experiment with U-251 was > 100 µM (inactive) throughout.
Turning to `C=CCCC(On1c(-c2ccc(Cl)cc2)csc1=S)c1ccccc1` (stereo unspecified), the GI50 in the experiment with HT-29 is 7.59 µM (inactive); with SF-539 it was 26.9 µM (inactive); in the experiment on SK-MEL-2 it was 14.9 µM (inactive); in the experiment with OVCAR-5 it was > 100 µM (inactive); in the experiment on Malme-3M, 14.6 µM (inactive); in the experiment with SK-MEL-5, 14.9 µM (inactive). The GI50 in the experiment with TK-10 was 83.4 µM (inactive); with SN12C, 47.3 µM (inactive); in the experiment on ACHN it was 83.6 µM (inactive); in the experiment on MOLT-4, 7.62 µM (inactive); in the experiment with HCT-15, 8.05 µM; with NCI-H23, 39.4 µM (inactive). The GI50 in the experiment with NCI-H226 was 26.7 µM (inactive); in the experiment with OVCAR-8, 98.6 µM (inactive); in the experiment on KM12, 26.5 µM (inactive); in the experiment on SF-268 it was 34 µM (inactive); with SW-620 it was 8.73 µM (inactive); with U-251, 21.2 µM (inactive).
As for `O=C(Nc1cccc([N+](=O)[O-])c1)C(=O)C(C(=O)c1ccccc1F)C1OC(=O)C2C=CC=CC21` (stereo unspecified), the GI50 was 41.6 µM (inactive) in the experiment on HT-29; 24 µM (inactive) in the experiment on SF-539; 30.3 µM (inactive) with SK-MEL-2; 81.7 µM (inactive) in the experiment with OVCAR-5; 36.1 µM (inactive) with HCC 2998; 73.1 µM (inactive) in the experiment with SK-MEL-5. Also, the GI50 in the experiment with SK-OV-3 is 41.3 µM (inactive); in the experiment on TK-10, > 100 µM (inactive); with SN12C, 30.1 µM (inactive); with ACHN, 49.4 µM (inactive); with MOLT-4 it was 32 µM (inactive); in the experiment on HCT-15, 27.5 µM. For the same compound, the GI50 in the experiment with NCI-H23 was 25.1 µM (inactive); with NCI-H226, 13.4 µM (inactive); with OVCAR-8, 30.3 µM (inactive); in the experiment on KM12, 27.3 µM (inactive); with SF-268, 19.7 µM (inactive); in the experiment with SW-620 it was 52.1 µM (inactive). Also, the GI50 in the experiment with U-251 is 22.3 µM (inactive).
For the compound `COS(=O)c1cc(Cl)cc(Cl)c1O` (stereo unspecified), the GI50 in the experiment with HT-29, in the experiment on SF-539, in the experiment with SK-MEL-2, with OVCAR-5, in the experiment with Malme-3M and with HCC 2998 was > 100 µM (inactive) each time. The GI50 with SK-OV-3 is 81.7 µM (inactive); in the experiment with TK-10 it was > 100 µM (inactive); in the experiment with SN12C it was > 100 µM (inactive); in the experiment on ACHN it was > 100 µM (inactive); with MOLT-4 it was > 100 µM (inactive); in the experiment on NCI-H23 it was > 100 µM (inactive). The GI50 with KM12, with SF-268 and in the experiment on U-251 was > 100 µM (inactive) each time.
As to `COc1ccc(/C(Cl)=C(\CN(C)C)c2ccc(OC)c(OC)c2)cc1OC`, the GI50 was > 100 µM (inactive) with HT-29; > 100 µM (inactive) with SF-539; 55.6 µM (inactive) in the experiment with SK-MEL-2; > 100 µM (inactive) in the experiment with Malme-3M; > 100 µM (inactive) with SK-MEL-5; > 100 µM (inactive) in the experiment with SK-OV-3. In addition, the GI50 with TK-10 was > 100 µM (inactive); with SN12C it was > 100 µM (inactive); in the experiment on ACHN, > 100 µM (inactive); in the experiment with MOLT-4, > 100 µM (inactive); in the experiment with HCT-15, above 100 µM; in the experiment with NCI-H23, > 100 µM (inactive). In addition, the GI50 in the experiment with NCI-H226, in the experiment on OVCAR-8, in the experiment on SF-268, in the experiment on SW-620 and in the experiment on U-251 was > 100 µM (inactive) throughout.
With `CSc1nc(NC2OCC(OC(C)=O)C(OC(C)=O)C2OC(C)=O)c(/N=C(\C)C(C)=O)c(=O)[nH]1` (stereo unspecified), the GI50 in the experiment on HT-29, with SF-539, with SK-MEL-2, in the experiment on OVCAR-5, in the experiment on Malme-3M and with SK-MEL-5 was > 100 µM (inactive) each time. Besides, the GI50 is > 100 µM (inactive) with TK-10; > 100 µM (inactive) in the experiment with SN12C; > 100 µM (inactive) in the experiment with ACHN; > 100 µM (inactive) with MOLT-4; above 100 µM with HCT-15; > 100 µM (inactive) in the experiment on NCI-H23. For the same compound, the GI50 with NCI-H226 is 0.164 µM (active); in the experiment on OVCAR-8, > 100 µM (inactive); in the experiment on KM12, > 100 µM (inactive); in the experiment on SF-268, > 100 µM (inactive); in the experiment on SW-620 it was > 100 µM (inactive); in the experiment with U-251, > 100 µM (inactive).
Consider `COC(=O)C(C)NP(=O)(N1CC1)N1CC1` (stereo unspecified), for which the GI50 in the experiment with HT-29, with SF-539, with SK-MEL-2, in the experiment with OVCAR-5, in the experiment on Malme-3M and in the experiment on HCC 2998 was > 100 µM (inactive) throughout. The GI50 with SK-MEL-5 was > 100 µM (inactive); in the experiment with SK-OV-3, > 100 µM (inactive); with TK-10 it was > 100 µM (inactive); with SN12C, 73.6 µM (inactive); with ACHN, 27.9 µM (inactive); in the experiment with MOLT-4 it was 40.3 µM (inactive). The GI50 in the experiment on HCT-15 is above 100 µM; in the experiment with NCI-H23 it was 97.3 µM (inactive); in the experiment with OVCAR-8, > 100 µM (inactive); in the experiment with KM12, > 100 µM (inactive); in the experiment with SF-268 it was > 100 µM (inactive); in the experiment on SW-620, > 100 µM (inactive). Further, the GI50 with U-251 was > 100 µM (inactive).
